Measured values from patent US20260275395A1, “ENZYMATIC CONVERSION OF D-XYLOSE INTO D-RIBOSE AND D-RIBULOSE-5-PHOSPHATE” (priority 2022, published 2026).

Tests used:
[1] = test system: BpXylA (xylose isomerase); test: Effect of metal ions on the activity of BpXylA; assay type: biochemical, Bacteroides plebeius; conditions: pre-incubation 4° C. 20 minutes; control: no metal ions added
Experimental: (§1) To investigate the optimal reaction conditions for BpXylA, the effects of optimal reaction temperature, pH, and metal ions were examined. The standard reaction conditions for BpXylA were set to a reaction with 1.09 U/ml BpXylA in 50 mM sodium phosphate (pH 7.0) buffer containing 10 mM D-xylose and 1 mM Mg^2+ at 50° C. for 10 minutes. The optimal reaction conditions for BpXylA described below were all determined by experiments under the standard reaction conditions.
(§2) First, in order to determine the optimal temperature conditions for BpXylA, the reaction was performed under standard reaction conditions at various temperature conditions. […] In order to determine the optimal pH of BpXylA, the reaction was performed while varying the pH using various buffer solutions.

[2] = test system: BpXylA (xylose isomerase); test: Effect of metal ions on the thermal stability of BpXylA; assay type: biochemical, Bacteroides plebeius; conditions: 1 mM metal ion; for Relative activity of BpXylA over time with metal ion: 50° C. (Mg^2+: 50° C. or higher), up to 90 minutes
Experimental: To investigate this, the culture was performed with each metal ion corresponding to a concentration of 1 mM together with the enzymes under various temperature conditions. As a result, as shown in [FIG. 4], higher thermal stability was found when the culture was performed with metal ions than when it was performed without metal ions. […] [(b) of FIG. 4 and (c) of FIG. 4].

[3] = biological target: EcPpk (polyphosphate kinase) (Escherichia coli, UniProt P0A7B1); conditions: pre-incubation 4° C. 20 minutes; control: no metal ions added
Experimental: As a result, the highest activity was found at 50° C., as shown in [(a) of FIG. 10]. […] As a result, the highest activity was found in a sodium phosphate buffer (pH 7.0), as shown in [(b) of FIG. 10]. […] The decrease in enzyme activity was calculated by calculating the decrease in relative activity due to heat treatment, using the activity of the enzyme that was not allowed to stand as a control. […] [(d) of FIG. 10].

EcAraB (L-ribulokinase) [4] = biological target: T1, EcAraB (L-ribulokinase) (Escherichia coli, UniProt P08204); test: Effect of metal ions on the activity of EcAraB; assay type: biochemical; design: His tag (inferred: pET21a, NotI reverse primer without stop codon, HisTrap purification) (C); T7 tag and vector leader of pET21a (own knowledge: in-frame insertion at SacI keeps the vector's N-terminal leader) (N); made in house; host or cells: E. coli BL21 (DE3); conditions: pre-incubation 4° C. 20 minutes; control: no metal ions added
Experimental: To determine the optimal reaction conditions for EcAraB, the optimal reaction temperature, pH, metal ion effects, and thermal stability were examined. […] The amount (mg) of EcAraB that produces 1 μmol of D-ribulose-5-phosphate per minute was defined as one unit.
As a result, as shown in [(a) of FIG. 9], the highest activity was found at 50° C. In order to determine the optimal pH conditions for EcAraB, the reaction was performed while varying the pH using various buffer solutions. […] [(d) of FIG. 9].

[5] = test system: BpRpiB (D-ribose-5-phosphate isomerase); test: Effect of metal ions on the activity of BpRpiB; assay type: biochemical, Bacteroides plebeius; conditions: pre-incubation 4° C. 20 minutes; control: no metal ions added
Experimental: (§3) To determine the optimal reaction conditions for BpRpiB, the optimal reaction temperature, pH, metal ion effects, and thermal stability were examined. […] The amount (mg) of BpRpiB that produces 1 μmol of D-ribulose per minute was defined as one unit.
(§4) First, in order to determine the optimal temperature conditions for BpRpiB, the reaction was performed under standard reaction conditions at various temperature conditions. […] In order to investigate the optimal pH for the activity of BpRpiB, the reaction was performed by changing the pH using various buffer solutions. […] [(d) of FIG. 5].

[6] = test system: BpXylA (xylose isomerase); test: Substrate specificity of BpXylA; assay type: biochemical, Bacteroides plebeius; conditions: substrate 2 mM, standard reaction conditions (50 mM sodium phosphate pH 7.0, 1 mM Mg^2+, 50° C., 10 minutes); based on the activity for D-xylose
Experimental: as §1
In order to determine whether BpXylA used in the present invention is a suitable enzyme for producing D-ribose from D-xylose, the substrate specificity of BpXylA for various aldo- and keto-sugars was examined [Table 1]. The experiment was conducted using various aldo- and keto-sugars as substrates at a concentration of 2 mM under the standard reaction conditions, and the relative activity against other substrates was shown based on the activity for D-xylose. […] Therefore, BpXylA is sufficiently applicable for producing D-ribose from D-xylose in the present invention.

[7] = test system: BpRpiB (D-ribose-5-phosphate isomerase); test: Substrate specificity of BpRpiB; assay type: biochemical, Bacteroides plebeius; conditions: substrate 2 mM, standard reaction conditions (50° C., 10 minutes)
Description: as §3
BpRpiB used in the present invention is known to be an enzyme that converts the substrate D-ribulose-5-phosphate, which is originally a phosphorylated sugar, into D-ribose-5-phosphate. Therefore, in the present invention, in order to confirm the activity of BpRpiB for D-ribose and D-ribulose as well as D-ribulose-5-phosphate and D-ribose-5-phosphate, which are the original substrates of BpRpiB, the substrate specificity of BpRpiB for various aldo- and keto-sugars was examined [Table 2]. The experiment was performed using various aldo- and keto-sugars as substrates at a concentration of 2 mM under standard reaction conditions, and the relative activity against other substrates was expressed based on the activity against D-xylose. […] Therefore, in the present invention, in order to produce D-ribose from D-xylose, BpRpiB is sufficiently applicable as an enzyme that converts D-ribulose into D-ribose, which is the final reaction step of the multi-enzyme process.

EcAraB (L-ribulokinase) [8] = biological target: T1, EcAraB (L-ribulokinase); conditions: previous study; cited from earlier work
[9] = test system: BpXylA (xylose isomerase); test: Optimal reaction temperature and pH of BpXylA; assay type: biochemical, Bacteroides plebeius
Experimental: as §1, §2

[10] = test system: BpXylA (xylose isomerase); test: Thermal stability of BpXylA; assay type: physicochemical, Bacteroides plebeius
[11] = biological target: T2, AtDpe (ketose 3-epimerase) (Agrobacterium fabrum, UniProt A9CH28); conditions: 50° C. compared to 45° C.; previous study; cited from earlier work
T2 sequence (A9CH28 whole entry, looked up): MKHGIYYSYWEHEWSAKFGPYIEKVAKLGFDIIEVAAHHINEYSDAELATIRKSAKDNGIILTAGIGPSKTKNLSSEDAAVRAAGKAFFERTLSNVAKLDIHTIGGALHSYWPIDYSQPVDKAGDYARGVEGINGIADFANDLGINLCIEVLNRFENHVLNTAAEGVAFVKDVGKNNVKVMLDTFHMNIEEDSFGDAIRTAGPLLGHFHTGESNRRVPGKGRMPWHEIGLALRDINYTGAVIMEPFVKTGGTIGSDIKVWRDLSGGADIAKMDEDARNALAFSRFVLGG

[12] = test system: BpRpiB (D-ribose-5-phosphate isomerase); test: Thermal stability of BpRpiB; assay type: physicochemical, Bacteroides plebeius
Experimental: as §3, §4

[Co+2] [Co^2+]
Effect of metal ion on enzyme activity [1]: significantly increased
Relative activity of BpXylA over time with metal ion [2]: stably maintained
Relative activity with metal ion added [3]: 176.14±24.10%
Relative activity with metal ion added (EcAraB (L-ribulokinase) [4]): 435.51±110.20%

[Cu+2] [Cu^2+]
Effect of metal ion on enzyme activity [5]: significantly inhibited

O=C[C@@H](O)[C@H](O)[C@H](O)CO [D-Arabinose]
Relative activity (%) [6]: Not detected
Relative activity (%) [7]: Not detected

O=C(CO)[C@@H](O)[C@H](O)[C@H](O)CO [D-Fructose]
Relative activity (%) [6]: Not detected
Relative activity (%) [7]: Not detected

O=C[C@H](O)[C@@H](O)[C@H](O)[C@H](O)CO [D-Glucose]
Relative activity (%) [6]: Not detected
Relative activity (%) [7]: Not detected

O=C[C@@H](O)[C@@H](O)[C@H](O)[C@H](O)CO [D-Mannose]
Relative activity (%) [6]: Not detected
Relative activity (%) [7]: Not detected

O=C[C@H](O)[C@H](O)[C@H](O)COP(=O)(O)O [D-Ribose-5-phosphate]
Relative activity (%) [7]: 933.9 ± 11.7%

O=C[C@H](O)[C@H](O)[C@H](O)CO [D-Ribose]
Relative activity (%) [6]: 33.2 ± 1.1%
Relative activity (%) [7]: 79.1 ± 0.4%

O=C(CO)[C@H](O)[C@H](O)COP(=O)(O)O [D-Ribulose-5-phosphate]
Relative activity (%) [7]: 924.4 ± 33.7%

O=C(CO)[C@H](O)[C@H](O)CO [D-Ribulose]
Relative activity (%) [6]: 13.9 ± 13.8%
Relative activity (%) [7]: 100 ± 4.8%

O=C(CO)[C@@H](O)[C@@H](O)[C@H](O)CO [D-Tagatose]
Relative activity (%) [6]: Not detected
Relative activity (%) [7]: Not detected

O=C[C@H](O)[C@@H](O)[C@H](O)CO [D-Xylose]
Relative activity (%) [6]: 100 ± 2.2%
Relative activity (%) [7]: Not detected

O=C(CO)[C@@H](O)[C@H](O)CO [D-Xylulose]
Relative activity (%) [6]: 156.5 ± 2.2%
Relative activity (%) [7]: Not detected
Activity relative to the activity against D-ribulose (EcAraB (L-ribulokinase) [8]): 2.44%

O=C[C@H](O)[C@@H](O)[C@@H](O)CO [L-Arabinose]
Relative activity (%) [6]: Not detected
Relative activity (%) [7]: Not detected

O=C(CO)[C@@H](O)[C@H](O)[C@@H](O)CO [L-Sorbose]
Relative activity (%) [6]: Not detected
Relative activity (%) [7]: Not detected

[Mg+2] [Mg^2+]
Effect of metal ion on enzyme activity [1]: significantly increased
Relative activity with metal ion added [1]: 876.98±35.30%
Relative activity of BpXylA over time with metal ion [2]: decreased over time
Thermal stability of BpXylA with metal ion ([2]; versus without metal ions): thermal stability increased
Relative activity with metal ion added [3]: 202.12±7.46%
Relative activity with metal ion added (EcAraB (L-ribulokinase) [4]): 614.62±42.14%

[Mn+2] [Mn^2+]
Effect of metal ion on enzyme activity [1]: significantly increased
Relative activity of BpXylA over time with metal ion [2]: stably maintained
Relative activity of BpXylA with metal ion ([2]; 60° C.): stable
Relative activity with metal ion added [3]: 161.48±5.53%
Relative activity with metal ion added (EcAraB (L-ribulokinase) [4]): 286.47±21.62%

[Zn+2] [Zn^2+]
Effect of metal ion on enzyme activity [5]: significantly inhibited

BpXylA: xylose isomerase derived from Bacteroides plebeius, SEQ ID NO: 1
Optimal pH ([9]; sodium phosphate buffer): 7.0
Optimal temperature for enzyme activity ([9]; standard reaction conditions, various temperatures): 50 °C
Enzyme activity after heat treatment ([10]; 40° C., up to 90 minutes): did not significantly decrease
Relative activity after heat treatment ([10]; 50° C. for 15 minutes, control: enzyme not allowed to stand): about 29.29±1.43%

B1: AtDpe: ketose 3-epimerase derived from Agarobacterium tumefaciens, SEQ ID NO: 3 (protein)
chain: T2 sequence (A9CH28 whole entry, looked up)
modifications: AtDpe
Thermal stability [11]: decreased rapidly

B2: BpRpiB: D-ribose-5-phosphate isomerase derived from Bacteroides plebeius, SEQ ID NO: 5 (protein)
chain: MKTIGLASDHAGFELKQYVKKWLEAKGWEYKDFGTYTTDSCDYPDFAHPLALAVENGECYPGIAICGSGEGIGITLNKHQGIRAALCWIPEIAHLARQHNNANVLVMPGRFIDEAMADKIMTEFFTTDFEGGRHQARIDKIPVR
modifications: BpRpiB
Activity after heat treatment ([12]; 70° C.): rapidly decreased
Overall activity after heat treatment ([12]; up to 60° C.): stable
